In US8153773B2, “Synthesis and use of anti-reverse phosphorothioate analogs of the messenger RNA cap” (Board of Supervisors of Louisiana State University and …, priority 2007, dated 2012):

Experiments:
DcpS [1] = biological target: T1, DcpS (Homo sapiens, UniProt Q96C86); experiment: Enzymatic hydrolysis by human DcpS; type: biochemical; design: key: the analogs assigned as resistant remained completely undigested under the applied conditions; the analogs assigned as hydrolyzed were hydrolyzed by DcpS with efficiency comparable to the respective unmodified parent compound; settings: conditions giving complete degradation of unmodified parent within 40-90 min, RP HPLC
T1 sequence (Q96C86 1-337): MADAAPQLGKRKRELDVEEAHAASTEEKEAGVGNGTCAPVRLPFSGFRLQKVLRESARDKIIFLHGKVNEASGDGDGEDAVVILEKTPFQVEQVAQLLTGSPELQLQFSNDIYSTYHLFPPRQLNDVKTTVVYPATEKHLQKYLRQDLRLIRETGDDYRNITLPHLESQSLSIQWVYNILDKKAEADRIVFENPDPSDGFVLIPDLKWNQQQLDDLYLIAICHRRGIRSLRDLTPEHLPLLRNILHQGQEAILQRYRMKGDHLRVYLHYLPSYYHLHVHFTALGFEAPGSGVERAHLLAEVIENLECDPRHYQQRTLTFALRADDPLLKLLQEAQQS
Experimental: (§1) Human and nematode DcpS were expressed in Escherichia coli according to the procedures described previously (L. S. Cohen et al., “Nematode m7 GpppG and m3(2,2,7)GpppG decapping: activities in Ascaris embryos and characterization of C. elegans scavenger DcpS,” RNA, vol. 10, pp. 1609-1624 (2004)). Both proteins were stored at −80° C. in 20 mM Tris buffer, pH 7.5, containing 50 mM KCl, 0.2 mM EDTA, 1 mM DTT, 0.5 mM PMSF, and 20% glycerol. An appropriate cap analog at 1 mM concentration was treated with 5.0 or 7.0 μl of DcpS (from human or C. elegans, respectively) in 500 μl of 50 mM TRIS buffer, pH=7.9, containing 20 mM of MgCl2 and 60 mM of (NH4)2SO4 at 37° C. for 60-90 min. Every 15-20 min a 100 μl sample was collected from the reaction mixture and deactivated by incubation in 90° C. for 3 min. Collected samples were analyzed without further treatment by analytical RP HPLC using a linear gradient of methanol in 0.1 M KH2PO4, pH=6.0, from 0-50% within 15 min and UV-detection at 260 nm.
(§2) The new series of S-analogs were subjected to in vitro enzymatic hydrolysis catalyzed by DcpS from both human and C. elegans sources. In all experiments, the corresponding unmodified cap analog was used as a positive control, i.e., m^7GpppG for non-ARCA S-analogs and m2^7,2′-OGpppG for S-ARCAs. The amount of DcpS enzyme was optimized to provide complete degradation of the control substrate within 40-90 min. The samples collected from reaction mixtures at various time intervals were analyzed by RP HPLC (as described in Materials and Methods).
(§3) In Table 4, cap analogs at 4 μM concentration were subjected to enzymatic digestion by DcpS in conditions leading to complete degradation of the unmodified parent compound (i.e. m^7GpppG for non-ARCA S-analogs and m2^7,2′-OGpppG for ARCAs) within 40-90 min. Samples collected from reaction mixtures at various time intervals were analysed by RP HPLC with UV detection at 260 nm as described in Materials and Methods. […] The result was unchanged even if the reaction time was extended to 24 h, various amounts of enzyme were used, and composition of the reaction buffer was modified.

HC11 cells = experiment: Translational efficiency of capped luciferase mRNA in HC11 cells; type: cell-based, mouse; settings: Luc-A60 mRNA capped with the analog in HC11 cells, relative to m^7Gp3G-capped mRNA
Experimental: Two methods, electroporation and nucleoporation, were used to deliver RNA into cells. In case of electroporation, 5 μg of RNA were introduced into 10^7 HC11 cells in a total volume 400 μl of serum-reduced RPMI 1640 medium in a Gene pulser cuvette (4 mm gap) with a Bio-Rad Genepulser™ set at 0.22 kV and 960 μF. Following discharge, the cells were washed twice with PBS, centrifuged for 2 min 300×g at room temperature, resuspended in prewarmed complete medium, and placed at 37° C. Nucleoporation was performed with an Amaxa Nucleofector II (Amaxa Biosystems) in accordance with manufacture's recommendations. One microgram of RNA was introduced into 10^6 HC11 cells with Nucleofector Solution V and the set of recommended regimens (program T-024).
For measurement of translational efficiency, cells were divided into several Eppendorf tubes, placed in a water bath at 37° C., and shaken. For measurement of mRNA stability, cells were distributed into 35-mm cell culture dishes and placed at 37° C. in a 5% CO2 humidified atmosphere. Cells were harvested at various times and washed twice with PBS.
For cytoplasmic RNA extraction, 2×10^5 cells were lysed in 175 μl of lysis buffer (50 mM Tris-HCl, pH 8.0, 140 mM NaCl, 1.5 mM MgCl2, 0.5% (v/v) Igepal (Sigma), and 1 mM dithiothreitol). RNAs were further purified using the RNeasy mini kit. For protein extraction, 2×10^5 cells were lysed in 200 μl of Luciferase Cell Culture Lysis Reagent (Promega). Luciferase activity of cell extracts was measured according to the manufacturer's protocol (Promega).
We also determined the translational efficiency in cultured cells for luciferase mRNA capped with S-ARCAs. This involved two measurements conducted at various times following nucleoporation—luciferase activity measured by luminometry in cleared cell lysates, and Luc-A60 levels measured by real-time PCR. Luciferase activity was normalized by the amount of luciferase mRNA that had been delivered into cells. To determine the amount of RNA present in the cells at a time immediately after nucleoporation, i.e., before any decay had occurred, cells were harvested at various times between 2 to 8 h post-nucleoporation, and cytoplasmic RNA was extracted. The amount of luciferase mRNA was measured by real time PCR using primers that amplify sequences near the 5′-end. Luciferase mRNA remaining at each time point was plotted as log10 ([RNA]) versus time to determine t1/2. The curve was extrapolated to 0 h, and the amount of RNA delivered into the cells was calculated. We defined conditions under which the accumulation of luciferase was linear with time, after an initial lag period of ˜30 min for recruitment of mRNA to ribosomes, completing the first polypeptide chain, and release of luciferase into the cytosol.

DcpS [2] = biological target: T2, DcpS (Caenorhabditis elegans, UniProt G5EFS4); experiment: Enzymatic hydrolysis by C. elegans DcpS; type: biochemical; design: key: the analogs assigned as resistant remained completely undigested under the applied conditions; the analogs assigned as hydrolyzed were hydrolyzed by DcpS with efficiency comparable to the respective unmodified parent compound; settings: conditions giving complete degradation of unmodified parent within 40-90 min, RP HPLC
T2 sequence (G5EFS4 1-311): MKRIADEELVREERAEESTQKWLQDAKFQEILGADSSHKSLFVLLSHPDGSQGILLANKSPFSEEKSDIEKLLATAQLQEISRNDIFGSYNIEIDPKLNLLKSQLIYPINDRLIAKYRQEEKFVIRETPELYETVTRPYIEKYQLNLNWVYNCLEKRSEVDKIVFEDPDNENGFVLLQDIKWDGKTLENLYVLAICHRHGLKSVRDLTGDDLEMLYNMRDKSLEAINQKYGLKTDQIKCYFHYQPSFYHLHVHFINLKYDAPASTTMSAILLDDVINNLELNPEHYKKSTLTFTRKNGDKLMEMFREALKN
Experimental: as §1, §2, §3

Row | Compound | Resistance to enzymatic hydrolysis by DcpS (human) (DcpS [1]) | Relative translational efficiency (HC11 cells) | Resistance to enzymatic hydrolysis by DcpS (from C. elegans) (DcpS [2]) | Relative translational efficiency (HC11 cells; listed as m2^7,2′-OGppSpG (D1)) | Relative translational efficiency (HC11 cells; listed as m2^7,2′-OGppspG (D1)) | Relative translational efficiency (HC11 cells; listed as m2^7,2′-OGppSpG (D2)) | Relative translational efficiency (HC11 cells; listed as m2^7,2′-OGppspG (D2))
1 | CO[C@@H]1[C@H](O)[C@@H](COP(=O)(O)OP(=O)([O-])OP(=O)(O)OC[C@H]2O[C@@H](n3cnc4c(=O)[nH]c(N)nc43)[C@H](O)[C@@H]2O)O[C@H]1n1c[n+](C)c2c(O)nc(N)nc21 [m2^7,2′-OGpppG, reference compound] | hydrolyzed | 2.1 ± 0.2 | hydrolyzed | – | – | – | –
2 | m2^7,2′-OGpppsG (D1) [Compound 4a] | hydrolyzed | 2.5 ± 0.8 | hydrolyzed | – | – | – | –
3 | m2^7,2′-OGpppsG (D2) [Compound 4b] | hydrolyzed | 1.8 ± 0.4 | hydrolyzed | – | – | – | –
4 | m2^7,2′-OGppspG (D1) [Compound 5a] | hydrolyzed | – | hydrolyzed | 2.8 ± 0.3 | 2.8 | – | –
5 | m2^7,2′-OGppspG (D2) [Compound 5b] | hydrolyzed | – | hydrolyzed | – | – | 5.1 ± 0.5 | 5.1
6 | m2^7,2′-OGpsppG (D1) [Compound 6a] | resistant | 2.0 ± 0.1 | resistant | – | – | – | –
7 | m2^7,2′-OGpsppG (D2) [Compound 6b] | resistant | 1.9 ± 0.1 | resistant | – | – | – | –
